Assay results: paper PMC9232612, “A phase 1b randomised controlled trial of a glucagon-like peptide-1 and glucagon receptor dual agonist IBI362 (LY3305677) in Chinese patients with type 2 diabetes” (Nature Communications, 2022)
Like-named read-outs stand apart in the source and are kept apart here.

Experiments:
[1] = Non-compartmental pharmacokinetics of IBI362 in plasma; type: in vivo; settings: human, sc; for AUC(0-t): n=8, read-out: AUC0-168h, geometric mean (CV%); for Cmax: n=8, read-out: Cmax, geometric mean (CV%)
Source text: (§1) Standard non-compartmental pharmacokinetics methods were used to analyze IBI362 plasma concentration data using Pkanalix 2020R1 (Lixoft, Antony, France). Secondary efficacy outcomes included change from baseline to week 12 in HbA1c, fasting plasma glucose (FPG), fasting insulin levels, change from baseline to week 12 in post-mixed-meal tolerance test (post-MTT) glucose, insulin, C peptide, GLP-1 and OXM levels, as well as seven-point self-measured blood glucose (SMBG) profile.
Safety analyses were done in the safety population (defined as all patients who received at least one dose of the study treatment). Pharmacokinetic analyses were done in the pharmacokinetic population (defined as all patients who received at least one dose of IBI362 and had at least one valid plasma concentration assessment). Efficacy analyses were done in the efficacy population (defined as all patients who received at least one dose of the study treatment and had baseline and at least one post-baseline HbA1c assessment). Immunogenicity analyses were done in the immunogenicity population (defined as all patients who received at least one dose of the study treatment and had at least one post-baseline ADA result). […]
Table 3. PK/PD Sampling Schedule
sampling time hour hour hour hour 1 hour hour hour for
collection - - min min ± 30 mi 1h 2h 3h 4h 5h - ± 2h - min min - ± 2h - min min - - 2h 12h
Drug √ √ √ √ √ √ √ √ √ √ √ √ √ √ √
PK Sampling ● ● ● ● ● ● ● ● ● ● ● ● ● ● ● ● ● ● ● ● ● ● ●
1. PK sampling time points: Week 1 (intensive PK) PK sampling points: within 1 h before administration, 4 h ± 10 min, 8 h ± 20 min, 12 h ± 30 min, 24 h ± 1 h (Day 2), 48 h ± 2 h (Day 3), 72 h ± 3 h (Day 4), 96 h
± 4 h (Day 5), 120 h ± 5 h (Day 6) and within 1 h before administration on Day 8. Week 4: D22 for 48h ± 2h. Sparse sampling in Week 5: within 1 h before administration on Day 29, 4 h ± 10 min, 8 h ± 20 min after
administration and within 1 h before administration on Day 36. Week 8: D50 48h ± 2h. Sparse sampling in Week 9: within 1 h before administration on Day 57, 4 h ± 10 min, 8 h ± 20 min after administration and within
1 h before administration on Day 64. Sparse sampling at Week 12: Within 1h before administration, 48h ± 2h after administration (D80) and 168h ± 12h after administration (D85) on D78. If a patient fails to complete
the study and withdraws from the study prematurely, PK samples will be collected at early termination visit. Three (3) mL samples will be collected at each blood collection site and detailed procedures will be provided
in the central laboratory manual.
2. PD sampling (insulin/C-peptide/plasma glucose/glucagon/OXM/GLP-1) points: Week 1: within 48 hours ± 2 hours after dosing (Day 3), within 1 hour before dosing on Day 8; Week 5: within 1 hour before dosing
on Day 29; Week 9: within 1 hour before dosing on Day 57; Week 12: within 1 hour before dosing on D78 and 168 hours ± 12 hours after dosing (D85). PD samples will be collected at the early termination visit, if a
patient withdraw early due to failure to complete the study. All PD sampling will be performed in the fasted state. A total of 9 mL will be collected from each blood collection site, and the detailed operation process will
be described in the central laboratory manual.

[2] = system: Chinese patients with T2D; assay: Mixed-meal tolerance test (MTT) and fasting: OXM; type: in vivo, human; settings: week 12; patients receiving IBI362
Description: HbA1c (2200101, Bio-Rad, USA), blood glucose (05168791190, Roche Diagnostics, Germany), insulin (12017547122, Roche Diagnostics, Germany), C peptide (03184897190, Roche Diagnostics, Germany), total GLP-1 (GLP-1 [7–36] amide and its metabolite, GLP-1 [9–36] amide, 10-1278-01, Mercodia AB, Sweden) and OXM (AL-139, AnshLabs, USA) tests were performed according to the manufactures’ instruction manuals in a central laboratory (KingMed Diagnostics, Guangzhou, China). HbA1c was measured using a Bio-rad D-100 Haemoglobin Testing System (Bio-rad). Blood glucose was measured using a Roche Cobas c702 analyser (Roche Diagnostics). Insulin and C peptide were measured using a Roche […] analyser (Roche Diagnostics). GLP-1 and OXM were measured using a Tecan Infinite M Plex microplate reader (TECAN).
as §1, with “profile. […]” for “profile.”
bag is added and mixed well. The time is counted from the first bite of eating. […]

diet-induced obese mice = settings: preclinical data quoted in the protocol, ref not given; cited from earlier work
Source text: page 42: IBI362 Innovent Biologics (Suzhou) Co., Ltd. CIBI362A101 3%, abdominal obesity [waist circumference ≥ 90 cm (male) or ≥ 85 cm (female)] patients up to 45. 4% [15]. Although the occurrence of obesity is low compared with Caucasians, body fat tends t o accumulate in the abdominal cavity which is more likely to form abdominal obesity. Weight gain is an independent risk factor for the development of T2DM. Increased body weight or waist circumference can aggravate insulin resistance, increase the risk of T2DM, and the difficulty of glycemic control. Compared with patients with obesity ...

[3] = after the first dose (1.0 mg s.c.), 3.0 mg cohort
[4] = after the first dose (1.5 mg s.c.), 4.5 mg cohort
[5] = after the first dose (2.0 mg s.c.), 6.0 mg cohort

- Tmax ([1]; after first s.c. dose, all IBI362 cohorts, n=24, read-out: median Tmax): ~72 h
- AUC(0-t) [1, 3]: 12300 ng·h/mL
- Cmax [1, 3]: 89.5 ng/mL
- Tmax ([1]; after the first dose (1.0 mg s.c.), 3.0 mg cohort, n=8, read-out: Tmax, median (range)): 48.2 h
- AUC(0-t) [1, 4]: 16500 ng·h/mL
- Cmax [1, 4]: 109 ng/mL
- Tmax ([1]; after the first dose (1.5 mg s.c.), 4.5 mg cohort, n=8, read-out: Tmax, median (range)): 72.2 h
- AUC(0-t) [1, 5]: 22100 ng·h/mL
- Cmax [1, 5]: 170 ng/mL
- Tmax ([1]; after the first dose (2.0 mg s.c.), 6.0 mg cohort, n=8, read-out: Tmax, median (range)): 84 h
SMILES: CC(C)C[C@H](NC(=O)[C@H](CC(C)C)NC(=O)[C@H](Cc1c[nH]c2ccccc12)NC(=O)[C@H](CCC(=O)O)NC(=O)[C@@H](NC(=O)[C@H](Cc1ccccc1)NC(=O)[C@H](CCC(=O)O)NC(=O)[C@H](CCCCNC(=O)COCCOCCNC(=O)COCCOCCNC(=O)CC[C@H](NC(=O)CCCCCCCCCCCCCCCCCCC(=O)O)C(=O)O)NC(=O)[C@H](C)NC(=O)[C@H](CCCCN)NC(=O)[C@H](CCCCN)NC(=O)[C@H](CCC(=O)O)NC(=O)[C@H](CC(=O)O)NC(=O)[C@H](CC(C)C)NC(=O)[C@H](Cc1ccc(O)cc1)NC(=O)[C@H](CCCCN)NC(=O)[C@H](CO)NC(=O)[C@H](Cc1ccc(O)cc1)NC(=O)[C@H](CC(=O)O)NC(=O)[C@H](CO)NC(=O)[C@@H](NC(=O)[C@H](Cc1ccccc1)NC(=O)[C@@H](NC(=O)CNC(=O)[C@H](CCC(N)=O)NC(=O)C(C)(C)NC(=O)[C@@H](N)Cc1c[nH]cn1)[C@@H](C)O)[C@@H](C)O)C(C)C)C(=O)N[C@@H](CCC(=O)O)C(=O)NCC(=O)NCC(=O)N1CCC[C@H]1C(=O)N[C@@H](CO)C(=O)N[C@@H](CO)C(=O)NCC(N)=O [IBI362]
- post-MTT OXM excursion [2]: markedly suppressed
- weight loss effects (decreased appetite, weight loss) (diet-induced obese mice): significant weight loss effects
